Source: PubChem BioAssay (NCI)
Values joined by “and” are separate entries in the source; they are usually repeats but may differ in a detail not shown here. Identical values can stand only once.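 Protocol summary: plate cells (96-well), add compound at 5 concentrations, incubate 48 h, interpolate endpoints linearly. GI50: concentration for 50% inhibition of growth. At the TGI there is no net growth.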

Tests used:
Experiment in all cases: NCI anticancer screen, dose series, 48 h
[1] = test system: 786-0 renal
[2] = test system: A498 renal
[3] = test system: A549 NSCLC
[4] = test system: ACHN renal
[5] = test system: BT-549 breast
[6] = test system: CAKI-1 renal
[7] = test system: CCRF-CEM leukemia
[8] = test system: COLO 205 colon
[9] = test system: DLD-1 colon
[10] = test system: DMS 114 small cell lung
[11] = test system: DMS 273 small cell lung
[12] = test system: DU-145 prostate
[13] = test system: EKVX NSCLC
[14] = test system: HCC-2998 colon
[15] = test system: HCT-116 colon
[16] = test system: HCT-15 colon
[17] = test system: HL-60(TB) leukemia
[18] = test system: HOP-18 NSCLC
[19] = test system: HOP-62 NSCLC
[20] = test system: HOP-92 NSCLC
[21] = test system: HS 578T breast
[22] = test system: HT29 colon
[23] = test system: IGROV1 ovarian
[24] = test system: K-562 leukemia
[25] = test system: KM12 colon
[26] = test system: KM20L2 colon
[27] = test system: LOX IMVI melanoma
[28] = test system: LXFL 529 NSCLC
[29] = test system: M14 melanoma
[30] = test system: M19-MEL melanoma
[31] = test system: MALME-3M melanoma
[32] = test system: MCF7 breast
[33] = test system: MDA-MB-231 breast
[34] = test system: MDA-MB-435
[35] = test system: MDA-N
[36] = test system: MOLT-4 leukemia
[37] = test system: NCI-H226 lung
[38] = test system: NCI-H23 lung
[39] = test system: NCI-H460 lung
[40] = test system: NCI-H522 lung
[41] = test system: NCI/ADR-RES ovarian
[42] = test system: OVCAR-3 ovarian
[43] = test system: OVCAR-4 ovarian
[44] = test system: OVCAR-5 ovarian
[45] = test system: OVCAR-8 ovarian
[46] = test system: PC-3 prostate
[47] = test system: RPMI-8226 leukemia
[48] = test system: RXF 393 renal
[49] = test system: RXF-631 renal
[50] = test system: SF-268 CNS
[51] = test system: SF-295 CNS
[52] = test system: SF-539 CNS
[53] = test system: SK-MEL-2 melanoma
[54] = test system: SK-MEL-28 melanoma
[55] = test system: SK-MEL-5 melanoma
[56] = test system: SK-OV-3 ovarian
[57] = test system: SN12C renal
[58] = test system: SNB-19 CNS
[59] = test system: SNB-75 CNS
[60] = test system: SNB-78 CNS
[61] = test system: SW-620 colon
[62] = test system: T-47D breast
[63] = test system: TK-10 renal
[64] = test system: U251 CNS
[65] = test system: UACC-257 melanoma
[66] = test system: UACC-62 melanoma
[67] = test system: UO-31 renal
[68] = test system: XF 498 CNS
[69] = test system: SR leukemia

COc1cc(NC(C)CCCN)c2ncccc2c1 (configuration not stated)
GI50 [1]: 43.8 µM and > 88.2 µM
TGI [1]: > 100 µM
GI50 [2]: 30.6 µM and 76.7 µM
TGI [2]: > 100 µM
TGI [3]: > 100 µM
TGI [4]: > 100 µM
TGI [5]: > 100 µM
TGI [6]: > 100 µM
TGI [7]: > 100 µM
TGI [8]: 41.2 µM and 64 µM
TGI [9]: > 100 µM
TGI [10]: > 89 µM
TGI [11]: > 100 µM
TGI [12]: > 100 µM
TGI [13]: > 100 µM
TGI [14]: 31.6 µM and 58.5 µM
GI50 [15]: 34.6 µM and 75.8 µM
TGI [15]: > 100 µM
GI50 [16]: 41.9 µM and 98.4 µM
TGI [16]: > 100 µM
TGI [17]: > 37.3 µM and 28.9 µM
TGI [18]: > 100 µM
GI50 [19]: 43.6 µM and > 91.6 µM
TGI [19]: > 100 µM
GI50 [20]: 27.2 µM and 62.6 µM
TGI [20]: > 100 µM
TGI [21]: > 100 µM
TGI [22]: > 95.4 µM
TGI [23]: > 100 µM
TGI [24]: > 100 µM
TGI [25]: > 100 µM
TGI [26]: > 100 µM
TGI [27]: > 100 µM
TGI [28]: > 100 µM
GI50 [29]: 16.8 µM and 43.1 µM
TGI [29]: 34.5 µM and > 73.6 µM
TGI [30]: > 100 µM
GI50 [31]: 19.3 µM and 44.4 µM
TGI [31]: 35.7 µM and 60.9 µM
TGI [32]: 31.5 µM
TGI [33]: > 100 µM
TGI [34]: > 100 µM
TGI [35]: > 82.1 µM
TGI [36]: > 100 µM
TGI [37]: > 100 µM
TGI [38]: > 100 µM
GI50 [39]: 32.8 µM and > 94.8 µM
TGI [39]: > 100 µM
TGI [40]: > 100 µM
TGI [41]: > 100 µM
TGI [42]: 84.2 µM and > 100 µM
TGI [43]: > 100 µM
TGI [44]: > 100 µM
TGI [45]: > 100 µM
TGI [46]: > 100 µM
TGI [47]: > 100 µM
GI50 [48]: 17.1 µM and 37.4 µM
TGI [48]: > 79.6 µM and 100 µM
TGI [49]: > 100 µM
TGI [50]: > 100 µM
TGI [51]: > 100 µM
TGI [52]: > 100 µM
TGI [53]: > 89.3 µM
GI50 [54]: 22.1 µM and 74 µM
TGI [54]: 47.5 µM and > 100 µM
TGI [55]: 32.3 µM and 57.3 µM
TGI [56]: > 100 µM
GI50 [57]: 41.4 µM and > 84.4 µM
TGI [57]: > 100 µM
GI50 [58]: 39.8 µM and > 100 µM
TGI [58]: > 100 µM
TGI [59]: > 100 µM and 80.5 µM
TGI [60]: > 100 µM
TGI [61]: > 100 µM
TGI [62]: > 53.2 µM
TGI [63]: > 100 µM
GI50 [64]: 39 µM and 86.1 µM
TGI [64]: > 100 µM
GI50 [65]: 11.3 µM and 30.2 µM
TGI [65]: 27.2 µM and 54.5 µM
GI50 [66]: 20.3 µM and 45.3 µM
TGI [66]: 51.9 µM and > 89.5 µM
GI50 [67]: 15.2 µM and 42.9 µM
TGI [67]: 57.8 µM and > 100 µM
TGI [68]: 73.2 µM

CN(C)C(=S)/N=c1\ssc(=S)n1Cc1cccnc1
TGI [1]: > 100 µM
TGI [2]: > 100 µM
TGI [3]: > 100 µM
TGI [4]: > 100 µM
TGI [6]: > 100 µM
TGI [7]: > 86.1 µM
TGI [8]: 32.1 µM
TGI [9]: > 100 µM
TGI [10]: 3.89 µM
TGI [11]: > 100 µM
TGI [12]: > 64.3 µM
TGI [13]: > 100 µM
TGI [14]: > 100 µM
TGI [15]: > 100 µM
TGI [16]: > 75 µM
TGI [17]: > 57.8 µM
TGI [18]: > 100 µM
TGI [19]: > 100 µM
TGI [20]: > 100 µM
TGI [21]: > 100 µM
TGI [22]: > 49.5 µM
TGI [23]: > 100 µM
TGI [24]: > 100 µM
TGI [25]: 36.2 µM
TGI [26]: 4.27 µM
TGI [27]: > 100 µM
TGI [28]: > 100 µM
TGI [29]: 59.2 µM
TGI [30]: > 46.6 µM
TGI [31]: > 100 µM
TGI [32]: > 100 µM
TGI [33]: > 100 µM
TGI [34]: 1.57 µM
TGI [36]: 98.5 µM
TGI [37]: > 100 µM
TGI [38]: > 69.6 µM
TGI [39]: > 95.7 µM
TGI [40]: 9.61 µM
TGI [41]: 4.51 µM
TGI [42]: 9.47 µM
TGI [43]: > 100 µM
TGI [44]: > 100 µM
TGI [45]: > 100 µM
TGI [46]: > 100 µM
TGI [47]: > 100 µM
TGI [48]: 17.8 µM
TGI [49]: > 100 µM
TGI [50]: > 100 µM
TGI [51]: 16.8 µM
TGI [52]: > 100 µM
TGI [53]: > 35.8 µM
TGI [54]: > 100 µM
TGI [55]: 37.8 µM
TGI [56]: > 81.1 µM
TGI [57]: > 100 µM
TGI [58]: > 100 µM
TGI [59]: 20.6 µM
TGI [60]: > 100 µM
TGI [69]: > 100 µM
TGI [61]: > 53.2 µM
TGI [62]: > 100 µM
TGI [63]: > 100 µM
TGI [64]: > 94.9 µM
TGI [65]: > 95.5 µM
TGI [66]: > 67.7 µM
TGI [67]: > 100 µM
TGI [68]: 47.1 µM
